Measured values reported in US10030016B2 (Sunesis Pharmaceuticals, Inc., priority 2009, dated 2018).
Read-outs that look alike come from different tables or passages of the source.

Key:
[1] = system: phospho-akt (Thr308) in PC-3 cells; assay: Inhibition of phospho-akt (Thr308) in PC-3 cells, MSD phospho-akt 308 ELISA kit; type: cell-based; details: Homo sapiens
How it was run: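 Read-out is MSD electrochemiluminescence of Akt phosphorylated at Thr308 in lysates of PC-3 cells treated 2 h with compound in serum-free medium. Wortmannin at 5 μM defined the low control and DMSO the high control.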

PDK1 = PDK1 (Homo sapiens (Human), UniProt O15530); assay: PDK1 kinase assay (coupled PDK1/AKT/FAM-crosstide assay, IMAP fluorescence polarization); type: biochemical; details: inhibition of PDK1 in vitro
PDK1, sequence (O15530 51-359): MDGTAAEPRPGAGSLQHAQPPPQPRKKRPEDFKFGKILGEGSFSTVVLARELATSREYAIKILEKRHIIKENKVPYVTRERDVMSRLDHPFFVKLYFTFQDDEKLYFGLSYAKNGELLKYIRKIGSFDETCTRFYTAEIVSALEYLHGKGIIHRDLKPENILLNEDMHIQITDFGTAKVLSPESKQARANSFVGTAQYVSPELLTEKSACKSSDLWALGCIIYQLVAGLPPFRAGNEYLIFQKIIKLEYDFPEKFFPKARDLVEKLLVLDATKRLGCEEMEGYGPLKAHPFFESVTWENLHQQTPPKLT
How it was run: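 GST-tagged PDK1 (aa 51-359, 0.75 nM) was coupled to unphosphorylated GST-AKT2 140-467-PIFtide (10 nM) and 100 nM FAM-crosstide at 40 μM ATP, in Tris pH 7.2 buffer, for 30 min at 25 °C. Crosstide phosphorylation was read by IMAP fluorescence polarization (ΔmP) and fitted with a 4-parameter curve.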

[2] = inhibition of P308 Akt in PC-3 cells using MSD, 2 hours, no serum, read-out: EC50

Compound `Nc1ncc(-c2ccc(CNc3ncc(C(F)(F)F)cc3C(=O)Nc3ccc(F)cc3)cc2)nc1O[C@@H]1CCNC1` [Example 159, 2-{4-[5-Amino-6-((R)-pyrrolidin-3-yloxy)-pyrazin-2-yl]-benzylamino}-N-(4-fluoro-phenyl)-5-trifluoromethyl-nicotinamide] has an EC50 [1, 2] of under 1000 nM and an IC50 (PDK1) of under 100 nM.

Compound `C[C@H](NC(=O)c1cc(C#N)cnc1NCc1ccc(-c2cnc(N)c(O[C@@H]3CCNC3)n2)cc1)c1ccc(F)cc1` [Example 160, 2-{4-[5-Amino-6-((R)-pyrrolidin-3-yloxy)-pyrazin-2-yl]-benzylamino}-5-cyano-N-[(S)-1-(4-fluoro-phenyl)-ethyl]-nicotinamide] has an EC50 [1, 2] of under 1000 nM and an IC50 (PDK1) of under 100 nM.

Work on `C[C@H](NC(=O)c1nc(C#N)cnc1NCc1ccc(-c2cnc(N)c(O[C@@H]3CCNC3)n2)cc1)c1ccc(F)c(F)c1` [Example 161, 3-{4-[5-Amino-6-((R)-pyrrolidin-3-yloxy)-pyrazin-2-yl]-benzylamino}-6-cyano-pyrazine-2-carboxylic acid [(S)-1-(3,4-difluoro-phenyl)-ethyl]-amide] yielded an EC50 [1, 2] of under 1000 nM and an IC50 (PDK1) of under 100 nM.

`C[C@H](NC(=O)c1cc(C#N)cnc1NCc1ccc(-c2cnc(N)c(O[C@H]3CCNC3)n2)cc1)c1ccc(F)cc1` [Example 162, 2-{4-[5-Amino-6-((S)-pyrrolidin-3-yloxy)-pyrazin-2-yl]-benzylamino}-5-cyano-N-[(S)-1-(4-fluoro-phenyl)-ethyl]-nicotinamide] showed an EC50 [1, 2] of under 1000 nM and an IC50 (PDK1) of under 100 nM.

Compound `Nc1ncc(-c2ccc(CNc3ncc(C(F)(F)F)cc3C(=O)Nc3ccc(F)cc3)cc2)nc1O[C@H]1CCNC1` [Example 163, 2-{4-[5-Amino-6-((S)-pyrrolidin-3-yloxy)-pyrazin-2-yl]-benzylamino}-N-(4-fluoro-phenyl)-5-trifluoromethyl-nicotinamide] has an EC50 [1, 2] of under 1000 nM and an IC50 (PDK1) of under 100 nM.

`C[C@H](NC(=O)c1nc(C#N)cnc1NCc1ccc(-c2cnc(N)c(O[C@H]3CCNC3)n2)cc1)c1ccc(F)c(F)c1` [Example 164, 3-{4-[5-Amino-6-((S)-pyrrolidin-3-yloxy)-pyrazin-2-yl]-benzylamino}-6-cyano-pyrazine-2-carboxylic acid [(S)-1-(3,4-difluoro-phenyl)-ethyl]-amide] showed an EC50 [1, 2] of under 1000 nM and an IC50 (PDK1) of under 100 nM.

`C[C@H](NC(=O)c1cc(C#N)cnc1NCc1ccc(-c2cnc(N)c(OCCN)n2)cc1)c1ccc(F)cc1` [Example 165, 2-{4-[5-Amino-6-(2-amino-ethoxy)-pyrazin-2-yl]-benzylamino}-5-cyano-N-[(S)-1-(4-fluoro-phenyl)-ethyl]-nicotinamide] was tested, and the EC50 [1, 2] was under 1000 nM and the IC50 (PDK1) was under 100 nM.

`NCCOc1nc(-c2ccc(CNc3ncc(C(F)(F)F)cc3C(=O)Nc3ccc(F)cc3)cc2)cnc1N` [Example 166, 2-{4-[5-Amino-6-(2-amino-ethoxy)-pyrazin-2-yl]-benzylamino}-N-(4-fluoro-phenyl)-5-trifluoromethyl-nicotinamide] gave an EC50 [1, 2] of under 1000 nM and an IC50 (PDK1) of under 100 nM.

`C[C@H](NC(=O)c1nc(C#N)cnc1NCc1ccc(-c2cnc(N)c(OCCN)n2)cc1)c1ccc(F)c(F)c1` [Example 167, 3-{4-[5-Amino-6-(2-amino-ethoxy)-pyrazin-2-yl]-benzylamino}-6-cyano-pyrazine-2-carboxylic acid [(S)-1-(3,4-difluoro-phenyl)-ethyl]-amide] was tested, and the EC50 [1, 2] was under 1000 nM and the IC50 (PDK1) was under 100 nM.

`C[C@H](NC(=O)c1cc(C#N)cnc1NCc1ccc(-c2cnc(N)c(O[C@H]3CCC[C@@H]3N)n2)cc1)c1ccc(F)cc1` [Example 168, 2-{4-[5-Amino-6-((1S,2S)-2-amino-cyclopentyloxy)-pyrazin-2-yl]-benzylamino}-5-cyano-N-[(S)-1-(4-fluoro-phenyl)-ethyl]-nicotinamide] was tested, and the EC50 [1, 2] was 1000 to 10000 nM and the IC50 (PDK1) was under 100 nM.

For `C[C@H](NC(=O)c1nc(C#N)cnc1NCc1ccc(-c2cnc(N)c(O[C@H]3CCC[C@@H]3N)n2)cc1)c1ccc(F)c(F)c1` [Example 169, 3-{4-[5-Amino-6-((1S,2S)-2-amino-cyclopentyloxy)-pyrazin-2-yl]-benzylamino}-6-cyano-pyrazine-2-carboxylic acid [(S)-1-(3,4-difluoro-phenyl)-ethyl]-amide], the EC50 [1, 2] was under 1000 nM and the IC50 (PDK1) was under 100 nM.

For `Nc1ncc(-c2ccc(CNc3ncc(C(F)(F)F)cc3C(=O)Nc3ccc(F)cc3)cc2)nc1O[C@H]1CCC[C@@H]1N` [Example 170, 2-{4-[5-Amino-6-((1S,2S)-2-amino-cyclopentyloxy)-pyrazin-2-yl]-benzylamino}-N-(4-fluoro-phenyl)-5-trifluoromethyl-nicotinamide], the EC50 [1, 2] was 1000 to 10000 nM and the IC50 (PDK1) was under 100 nM.

`C[C@H](NC(=O)c1cc(C#N)cnc1NCc1ccc(-c2cnc(N)c(O[C@@H]3CCC[C@H]3N)n2)cc1)c1ccc(F)cc1` [Example 171, 2-{4-[5-Amino-6-((1R,2R)-2-amino-cyclopentyloxy)-pyrazin-2-yl]-benzylamino}-5-cyano-N-[(S)-1-(4-fluoro-phenyl)-ethyl]-nicotinamide] showed an EC50 [1, 2] of 1000 to 10000 nM and an IC50 (PDK1) of under 100 nM.

`C[C@H](NC(=O)c1nc(C#N)cnc1NCc1ccc(-c2cnc(N)c(O[C@@H]3CCC[C@H]3N)n2)cc1)c1ccc(F)c(F)c1` [Example 172, 3-{4-[5-Amino-6-((1R,2R)-2-amino-cyclopentyloxy)-pyrazin-2-yl]-benzylamino}-6-cyano-pyrazine-2-carboxylic acid [(S)-1-(3,4-difluoro-phenyl)-ethyl]-amide] showed an EC50 [1, 2] of 1000 to 10000 nM and an IC50 (PDK1) of under 100 nM.

Compound `Nc1ncc(-c2ccc(CNc3ncc(C(F)(F)F)cc3C(=O)Nc3ccc(F)cc3)cc2)nc1O[C@@H]1CCC[C@H]1N` [Example 173, 2-{4-[5-Amino-6-((1R,2R)-2-amino-cyclopentyloxy)-pyrazin-2-yl]-benzylamino}-N-(4-fluoro-phenyl)-5-trifluoromethyl-nicotinamide] has an EC50 [1, 2] of under 1000 nM and an IC50 (PDK1) of under 100 nM.

Work on `C[C@H](NC(=O)c1cc(C#N)cnc1NCc1ccc(-c2ccn3ncnc(N)c23)cc1)c1ccc(F)cc1` [Example 174, 2-[4-(4-Amino-pyrrolo[2,1-f][1,2,4]triazin-5-yl)-benzylamino]-5-cyano-N-[(S)-1-(4-fluoro-phenyl)-ethyl]-nicotinamide] yielded an EC50 [1, 2] of under 1000 nM and an IC50 (PDK1) of under 100 nM.

For `C[C@H](NC(=O)c1nc(C#N)cnc1NCc1ccc(-c2ccn3ncnc(N)c23)cc1)c1ccc(F)c(F)c1` [Example 175, 3-[4-(4-Amino-pyrrolo [2,1-f][1,2,4]triazin-5-yl)-benzylamino]-6-cyano-pyrazine-2-carboxylic acid [(S)-1-(3,4-difluoro-phenyl)-ethyl]-amide], the EC50 [1, 2] was under 1000 nM and the IC50 (PDK1) was under 100 nM.

Work on `Nc1ncnn2ccc(-c3ccc(CNc4ncc(C(F)(F)F)cc4C(=O)NCc4ccc(F)c(F)c4)cc3)c12` [Example 176, 2-[4-(4-Amino-pyrrolo [2,1-f][1,2,4]triazin-5-yl)-benzylamino]-N-(3,4-difluoro-benzyl)-5-trifluoromethyl-nicotinamide] yielded an EC50 [1, 2] of 1000 to 10000 nM and an IC50 (PDK1) of under 100 nM.

`Nc1ncnn2ccc(-c3ccc(CNc4ncc(C(F)(F)F)cc4C(=O)Nc4ccc(F)cc4)cc3)c12` [Example 177, 2-[4-(4-Amino-pyrrolo [2,1-f][1,2,4]triazin-5-yl)-benzylamino]-N-(4-fluoro-phenyl)-5-trifluoromethyl-nicotinamide] was tested, and the EC50 [1, 2] was 1000 to 10000 nM and the IC50 (PDK1) was under 100 nM.

Work on `C[C@H](NC(=O)c1cc(C#N)cnc1NCc1ccc(-c2ccc3c(N)ncnn23)cc1)c1ccc(F)cc1` [Example 178, 2-[4-(4-Amino-pyrrolo [2,1-f][1,2,4]triazin-7-yl)-benzylamino]-5-cyano-N-[(S)-1-(4-fluoro-phenyl)-ethyl]-nicotinamide] yielded an EC50 [1, 2] of 1000 to 10000 nM and an IC50 (PDK1) of under 100 nM.

`Nc1ncnn2c(-c3ccc(CNc4ncc(C(F)(F)F)cc4C(=O)NCc4ccc(F)c(F)c4)cc3)ccc12` [Example 179, 2-[4-(4-Amino-pyrrolo [2,1-f][1,2,4]triazin-7-yl)-benzylamino]-N-(3,4-difluoro-benzyl)-5-trifluoromethyl-nicotinamide] showed an EC50 [1, 2] of 1000 to 10000 nM and an IC50 (PDK1) of 100 to 1000 nM.

`Nc1ncnn2c(-c3ccc(CNc4ncc(C(F)(F)F)cc4C(=O)Nc4ccc(F)cc4)cc3)ccc12` [Example 180, 2-[4-(4-Amino-pyrrolo [2,1-f][1,2,4]triazin-7-yl)-benzylamino]-N-(4-fluoro-phenyl)-5-trifluoromethyl-nicotinamide] was tested, and the EC50 [1, 2] was 1000 to 10000 nM and the IC50 (PDK1) was under 100 nM.

`C[C@H](NC(=O)c1nc(C#N)cnc1NCc1ccc(-c2ccc3c(N)ncnn23)cc1)c1ccc(F)c(F)c1` [Example 181, 3-[4-(4-Amino-pyrrolo [2,1-f][1,2,4]triazin-7-yl)-benzylamino]-6-cyano-pyrazine-2-carboxylic acid [(S)-1-(3,4-difluoro-phenyl)-ethyl]-amide] gave an EC50 [1, 2] of under 1000 nM and an IC50 (PDK1) of under 100 nM.

`C[C@H](NC(=O)c1nc(C#N)cnc1NCc1ccc(-c2cnc3[nH]nc(N)c3n2)cc1)c1ccc(F)c(F)c1` [Example 182, 3-[4-(3-Amino-1H-pyrazolo[3,4-b]pyrazin-5-yl)-benzylamino]-6-cyano-pyrazine-2-carboxylic acid [(S)-1-(3,4-difluoro-phenyl)-ethyl]-amide] was tested, and the EC50 ([1]; PC-3, 2 h) was under 1000 nM and the IC50 (PDK1) was under 100 nM.

Compound `C[C@H](NC(=O)c1cc(C#N)cnc1NCc1ccc(-c2cnc3[nH]nc(N)c3n2)cc1)c1ccc(F)cc1` [Example 183, 2-[4-(3-Amino-1H-pyrazolo [3,4-b]pyrazin-5-yl)-benzylamino]-5-cyano-N-[(S)-1-(4-fluoro-phenyl)-ethyl]-nicotinamide] has an EC50 [1, 2] of under 1000 nM and an IC50 (PDK1) of under 100 nM.

`Nc1n[nH]c2ncc(-c3ccc(CNc4ncc(C(F)(F)F)cc4C(=O)Nc4ccc(F)cc4)cc3)nc12` [Example 184] was tested, and the EC50 [1, 2] was under 1000 nM and the IC50 (PDK1) was under 100 nM.
